Measurements taken from paper PMC8308625, “Preclinical Studies in Anti-Trypanosomatidae Drug Development” (Pharmaceuticals, 2021).
Where two headings read alike, the source gives them in different places.

What was measured:
[1] = system: L. infantum veterinary isolate (MCAN_UY_2015_gPL8); experiment: Growth inhibition of L. infantum veterinary isolate promastigotes (resazurin); settings: for Selectivity Index MΦ/Lin–Vet: EC50 mammalian cell line/EC50 L. infantum veterinary isolate; for EC50: Leishmania infantum, read-out: EC50 ± SD Lin–Vet
human macrophages = experiment: Cytotoxicity in human macrophages; format: cell-based; settings: 50 µM
Description: Differentiation of THP-1 to produce macrophage-like cells was carried out using phorbol 12-myristate-13-acetate (Sigma-Aldrich, Deisenhofen, Germany).
All assays were performed in triplicate.

fibroblasts (NCTC929) = experiment: Cytotoxicity in fibroblasts; format: cell-based; settings: NCTC-929, read-out: EC50 ± SD Fibroblasts
Description: Table 5 Cytotoxicity and selectivity index of reference drugs and selected molecules. | column: EC50 ± SD (µM) ^a / Fibroblasts

human red blood cells = experiment: Red Blood Cell Lysis Assay; format: cell-based; settings: 50 µM
Description: To assess a compound’s hemolytic activity the Red Blood Cell Lysis Assay (national blood bank) was performed. A compound-containing erythrocyte (2% (w/v)) suspension prepared in phosphate-buffered saline pH 7.4 was incubated for 24 h at 37 °C and the amount of hemoglobin released into the supernatant determined spectrophotometrically using a Varioskan TM Flash Multimode Reader (Thermo ScientificTM, MA, USA) set to a wavelength of 405 nm. The % hemolysis was determined using the follows equation: % released hemoglobin = [(A1 − A0)/(A1water)] × 100, where A1 and A0 represent the absorbance at 405 nm of the test sample at 0 and 24 h, and A1water the absorbance at 405 nm of water at 24 h. The experiments were performed by quintuplicate. […]

[2] = biological target: T1, Triosephosphate isomerase from L. mexicana (LmTIM) (Leishmania mexicana, UniProt P48499); experiment: LmTIM inactivation; format: biochemical
T1 construct: made in house; host or cells: Escherichia coli
Description: (§1) Table S3. Activity of compound 796 in Triosephosphate isomerase from L. mexicana (LmTIM) […]
(§2) Expression and purification of proteins: TbTIM, LmTIM were expressed in Escherichia coli and purified as described in the literature. After purification, the enzyme, disolved in 100 mM triethanolamine, 10 mM EDTA and 1 mM dithiothreitol (pH 8), was precipitated with ammonium sulfate (75% saturation) and stored at 4 _C. Before use, extensive dialysis against 100 mM triethanolamine/10 mM EDTA (pH 7.4) was performed. Protein concentration was determined by absorbance at 280 nm (ε= 36,440 M-1cm-1) TbTIM and LmTIM. Enzymatic activity assays: Enzymatic activity was determined following the conversion of glyceraldehyde 3‐phosphate into dihydroxyacetone phosphate. The decrease in absorbance at 340 nm was followed in a multi‐cell Cary spectrophotometer at 25 °C. The reaction mixture (1 mL, pH 7.4) contained 100 mM triethanolamine, 10 mM EDTA, 0.2 mM NADH, 1 mM glyceraldehyde 3‐phosphate and 0.9 units of _‐glycerol phosphate dehydrogenase. The reaction was initiated by the addition of 5 ng/mL of the TbTIM. For the inhibition studies, TcTIM, LmTIM and TbTIM were incubated at a concentration of 5 mg/mL in a buffer containing 100 mM triethanolamine, 10 mM EDTA, pH 7.4 and 10% of DMSO at 36 _C. The mixture also contained the compounds at the indicated concentrations. Compounds were dissolved in DMSO. […]

in vivo = settings: male, B6D2F1, mouse, po, 2000 mg/kg
T. brucei = experiment: Growth inhibition of T. brucei bloodstream form trypomastigotes (resazurin); format: cell-based, Trypanosoma brucei brucei; settings: for EC50: Trypanosoma brucei, read-out: EC50 ± SD T. brucei
Description: Compounds were dissolved in dimethylsulfoxide (DMSO).

[3] = design: method as in PMID 24749923, PMID 26492824, PMID 25512408; settings: ref [13],[14],[15]; cited from earlier work
[4] = Liver fraction stability (cytosolic and microsomal fraction of rat hepatocytes, TLC); format: in vitro ADME; settings: rat hepatocyte cytosolic and microsomal fractions, 37 °C
Description: For the determination of the stability in the different fractions, (cytosolic and microsomal of rat hepatocytes) the different proteins present in them were used. The fractions were prepared according to the previously reported protocol. […] The final concentration of the molecules in the aqueous medium was 400 µM and prepared from a stock in DMSO of 40 mM. The solutions were homogenized and incubated at 37 °C at 10 min, 30 min, 1 h, 2 h, 3 h and 4 h. (by TLC). For this, it was incubated at 37 °C in a volume of 1 mL: 2.5 µL of 30 mM Magnesium Chloride (MgCl); 2.5 µL of 40 mM Nicotinamide Adenosine Dinucleotide Phosphate (NADP+); 5 µL of 350 mM Glucose 6- Phosphate (Glu6P); 5 µL of Glucose 6- phosphate dehydrogenase (Glu6PD) 50 U/mL, 5 µL of the stock of 40 mM compounds and the volume of the Phosphate Buffer (pH = 7) must be such that cytosolic (CF) and microsomal (MF) fraction FC and FM present a final protein concentration of 0.1 mg/mL. After that, the stability of compounds 796 and 1019 in the cytosolic (FCF) and microsomal (FMF) fraction of rat hepatocytes was evaluated at different times (1–4 h). Thin-layer chromatography of ethyl acetate extracts was conducted to evaluate the presence of decomposition products. The mobile phase used for these TLCs was n-hexane: ethyl acetate (7: 3).

[5] = Acute oral toxicity (up and down test); settings: mice
L. amazonensis [6] = experiment: Growth inhibition of L. amazonensis promastigotes (resazurin); settings: for Selectivity Index MΦ/L. amaz: EC50 mammalian cell line/EC50 L. amazonensis; for EC50: Leishmania amazonensis, read-out: EC50 ± SD L. amaz
L. infantum amastigote = experiment: Single dose study in the amastigote form of L. infantum; format: cell-based; settings: Leishmania infantum, single dose 10 µM
L. braziliensis = settings: read-out: EC50 ± SD L. brazils, cited from earlier work
[7] = biological target: T2, Triosephosphate isomerase from T. brucei (TbTIM) (Trypanosoma brucei brucei, UniProt P04789); experiment: TbTIM inactivation; format: biochemical
T2 construct: made in house; host or cells: Escherichia coli
Description: as §1, §2

L. amazonensis [8] = experiment: Murine model of cutaneous Leishmaniasis; settings: BALB/c mice, oral
Description: For the in vivo model of cutaneous disease, 1 × 10^7 amastigote parasites of L. amazonensis PH8 were inoculated in the upper part of the left paw of the mice. […] The mice were sacrificed 30 days post-infection. The antiparasitic effect was evaluated by two methods: the weekly evolution of the diameter of the infected paw throughout the experiment (Figure 2C) and the quantification of the parasite load in the infected area at the end of the experiment (Figure 2A).
Golden hamsters (Mesocritus auratus) were used to maintain L. amazonensis infections with the parasites passage every 6 to 8 weeks. BALB/c mice (female and male) supplied by the IFFA-CREDO, Lyon, France, and bred at the Instituto de Investigaciones en Ciencias de la Salud, Asuncion, Paraguay, were inoculated in the right hind footpad with 2 × 10^6 L. amazonensis amastigotes in 100 µL PBS obtained from donor hamsters. Disease progression was monitored by the measurement of lesion diameters for 7 to 12 weeks. […] Two days before the administration of the drug, the mice were randomly divided into groups of eight. […] The animals were euthanized two weeks after cessation of treatments to assess parasitological loads in the infected footpad. […] Following incubation at 27 °C for seven days, cultures were examined with an inverted microscope (Olympus, Tokyo, Japan) at a magnification of ×400. The number of parasites per gram in the lesion was calculated by the following equation: Parasite burden = geometric mean of the number of parasites in each duplicate/(number of microscope field counted × weight of lesion × (25,000) hemocytometer correction factor) [37]. […] Comparisons of parasite suppression in the infected footpads of the untreated and drug-treated groups were performed by Student’s t-test. One-way ANOVA (as a non-parametric statistical test) was also used on ranks.

T. cruzi [9] = settings: cited from earlier work
[10] = system: L. infantum reference strain (MHOM/BR/2002/LPC-RPV); experiment: Growth inhibition of L. infantum reference strain promastigotes (resazurin); settings: for Selectivity Index MΦ/Lin–Ref: EC50 mammalian cell line/EC50 L. infantum reference strain; for EC50: Leishmania infantum, read-out: EC50 ± SD Lin–Ref
[11] = system: J774.1 murine macrophages; experiment: Nonspecific cytotoxicity in murine macrophages (MTT); settings: Mus musculus, J774.1, read-out: EC50 ± SD MΦ
Description: Cell viability was then assessed using the 3-(4,5-dimethylthiazol-2-yl)-2,5-diphenyltetrazolium bromide (MTT) colorimetric assay [1]. […] All assays were performed in triplicate [35].

Cruzipain = settings: mechanism of action; ref [13],[14],[15]; cited from earlier work
[12] = cited from earlier work; for Ames Test (mutagenicity): ref [13],[14],[15]
T. cruzi [13] = system: T. cruzi; design: method as in PMID 31652542; settings: mice, ref [16], cited from earlier work
[14] = cited from earlier work
[15] = mice, up and down test, cited from earlier work
[16] = biological target: triosephosphate isomerase; settings: mechanism of action; ref [13],[14],[15]; cited from earlier work
[17] = Table 4, curcuminoids, ref [14]
[18] = Table 4, curcuminoids, ref [14], read-out: EC50 ± SD T. cruzi
[19] = epimastigotes, multiple strains, ref [13],[14],[15], read-out: EC50 in vitro anti-T. cruzi, epimastigotes

T1 sequence (P48499 whole entry): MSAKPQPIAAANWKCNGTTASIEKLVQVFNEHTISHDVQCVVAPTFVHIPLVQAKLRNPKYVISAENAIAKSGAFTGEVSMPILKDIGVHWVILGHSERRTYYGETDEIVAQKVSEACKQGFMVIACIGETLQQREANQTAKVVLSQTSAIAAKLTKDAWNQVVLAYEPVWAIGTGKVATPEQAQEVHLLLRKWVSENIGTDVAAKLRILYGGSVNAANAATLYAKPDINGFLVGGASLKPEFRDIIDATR
T2 sequence (P04789 whole entry): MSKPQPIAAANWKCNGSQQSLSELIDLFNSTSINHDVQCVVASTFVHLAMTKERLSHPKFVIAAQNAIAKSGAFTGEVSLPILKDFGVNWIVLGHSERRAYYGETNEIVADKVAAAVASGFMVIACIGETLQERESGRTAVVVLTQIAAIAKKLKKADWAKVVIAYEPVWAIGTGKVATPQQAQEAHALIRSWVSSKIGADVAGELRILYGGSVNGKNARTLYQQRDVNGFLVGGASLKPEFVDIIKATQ

Row | SMILES | Selectivity Index MΦ/Lin–Vet [1] | EC50 [1] [µM] | cytotoxicity in human macrophages (human macrophages) | EC50 (fibroblasts (NCTC929)) [µM] | cytotoxicity in human red blood cells (human red blood cells) | Stability in vitro (microsomal, plasma, other solutions) [3] | survival in the acute toxicity model in vivo [5] [%] | Selectivity Index MΦ/L. amaz (L. amazonensis [6]) | EC50 (L. amazonensis [6]) [µM] | inhibition at 10 µM (L. infantum amastigote) [%] | EC50 (L. braziliensis; [17]) [µM] | EC50 (T. cruzi [9]; [18]) [µM] | EC50 (T. cruzi [9]; [19]) [µM] | Selectivity Index MΦ/Lin–Ref [10] | EC50 [10] [µM] | EC50 [11] [µM] | Ames Test (mutagenicity) [12] | further results
1 | O=C(/C=C/c1cccs1)/C=C/c1cccs1 [Compound 796] | 4 | 10 ± 2 | did not see any inhibition | 158 ± 5 | did not see any inhibition | moderate | 100 | 5 | 8 ± 2 | 90 | 4 ± 0.5 | 5 ± 0.8 | 5 | 10 | 4 ± 0.5 | 38 ± 7 | – | inhibition at 50 µM [2]: 42.5%; LD50 at 14 days (in vivo): > 2000 mg/kg; EC50 (T. brucei; Table 4, curcuminoids): 0.6 ± 0.1 µM; Media Mn/Mouse ± SD (male, CD-1, mouse, in vivo, 150 mg/kg): 5 ± 1; Number EPMn (total polychromatic micronucleated erythrocytes in the 5 assays) (mice, 796 150 mg/kg oral, Cyclophosphamide intraperitoneal positive control, 5000 EPC observed): 21; metabolic stability: time compound detected / degraded [4]: ≥ 4 h; inhibition at 50 µM [7]: 61%; % of suppression of the parasites (L. amazonensis [8]; parasite load in lesion, 796 at 203 µmol/kg, other molecules at half that dose): more than 50%; diameter of the paw (L. amazonensis [8]; when treatment begins (Figure 2C)): begins to decrease
2 | C=CCn1c(C(=O)N2CCN(C/C=C/c3ccccc3)CC2)cs\c1=N/N=C/C=C/c1ccco1 [Compound 314] | 12 | 2.5 ± 1 | did not see any inhibition | 346 ± 9 | did not see any inhibition | High | 100 | 3 | 12 ± 5 | 85 | – | – | – | 23 | 1.3 ± 0.5 | 30 ± 5 | No | IC50 (Cruzipain): 4.3 µM; AMES test, mutagenic capacity ([12]; previous works, ref [13],[16]): negative; reduction of parasitemia (T. cruzi [13]; oral, same dose as in the Leishmaniasis in vivo assay): more than 60%; survival (T. cruzi [13]; mean 60% survival in untreated group): 100%; micronucleus test, genotoxicity ([14]; previous works, ref [13],[16]): not genotoxic; Micronucleus test in mice (Genotoxicity) ([14]; ref [13],[14],[15]): No; EC50 (T. brucei; Table 3, thiazolidene hydrazines): 5 ± 1 µM; acute toxicity LD50 ([15]; previously evaluated, ref [13],[16]): > 2000 mg/kg of weight; Acute oral toxicity LD50 ([15]; ref [13],[14],[15]): ^d LD50 > 2000 mg/kg in mice; EC50 (L. braziliensis; Table 3, thiazolidene hydrazines, ref [13],[16],[19],[23],[25]): 4 ± 1 µM; leishmanicidal activity in vivo (L. amazonensis [8]; half the dose of 796): low; EC50 (T. cruzi [9]; Table 3, thiazolidene hydrazines, ref [13],[16],[19],[23],[25], read-out: EC50 ± SD T. cruzi): 3.1 ± 0.2 µM; EC50 (T. cruzi [9]; amastigotes, multiple strains, ref [13],[14],[15], read-out: EC50 in vitro anti-T. cruzi, amastigotes): 0.72 µM
3 | O=C1/C(=C/C=C/c2ccco2)CCC/C1=C\C=C\c1ccco1 [Compound 1019] | – | – | – | – | – | low | – | – | 7 ± 1 | – | 13 ± 7 | 0.6 ± 0.2 | 0.6 | – | < 0.3 | – | no | growth inhibitory / trypanosomicidal effect on the L. infantum canine-derived isolate [1]: no trypanosomicidal effect; trypanosomicidal effect on T. brucei (T. brucei): no trypanosomicidal effect; IC50 [16]: 0.086 µM
